Results taken from patent US20240116910A1, “Heterocycles as WIP1 Inhibitors” (PMV Pharmaceuticals, Inc., priority 2022, published 2024).

Key:
[1] = target: recombinant His-tag Wip1(2-420) protein (amino acids #2-420) (Homo sapiens (Human), UniProt O15297); assay: Wip1(2-420) phosphatase enzyme FDP assay; assay type: biochemical; conditions: fluorescein diphosphate (FDP) substrate, RT 2 hours, fluorescence Ex485/Em535; read-out: WIP1 (Truncated 2-420) FDP Assay: IC50
[2] = target: recombinant His-tag Wip1 full length protein (amino acids #1-605) (Homo sapiens (Human), UniProt O15297); assay: Wip1 full length phosphatase enzyme FDP assay; assay type: biochemical; conditions: fluorescein diphosphate (FDP) substrate, RT 2 hours, fluorescence Ex485/Em535
recombinant His-tag Wip1 full length protein (amino acids #1-605), sequence (O15297 whole entry): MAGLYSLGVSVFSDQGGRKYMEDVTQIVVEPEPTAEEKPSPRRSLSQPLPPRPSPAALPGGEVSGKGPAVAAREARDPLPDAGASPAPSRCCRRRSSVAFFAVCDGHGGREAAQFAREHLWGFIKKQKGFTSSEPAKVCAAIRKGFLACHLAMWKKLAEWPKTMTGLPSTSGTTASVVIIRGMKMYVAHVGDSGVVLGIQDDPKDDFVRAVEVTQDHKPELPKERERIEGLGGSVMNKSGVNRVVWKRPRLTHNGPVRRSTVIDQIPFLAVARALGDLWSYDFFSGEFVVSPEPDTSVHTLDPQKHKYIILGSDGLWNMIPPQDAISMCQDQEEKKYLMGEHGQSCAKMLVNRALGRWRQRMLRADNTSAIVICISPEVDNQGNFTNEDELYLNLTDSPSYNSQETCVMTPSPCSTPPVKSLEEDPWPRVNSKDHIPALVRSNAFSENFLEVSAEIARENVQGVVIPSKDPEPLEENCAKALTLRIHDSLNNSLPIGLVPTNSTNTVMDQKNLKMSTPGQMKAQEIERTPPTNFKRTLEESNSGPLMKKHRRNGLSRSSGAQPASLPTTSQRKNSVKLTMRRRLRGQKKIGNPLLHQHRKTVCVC

recombinant His-tag Wip1(2-420) protein (amino acids #2-420), sequence (O15297 2-420): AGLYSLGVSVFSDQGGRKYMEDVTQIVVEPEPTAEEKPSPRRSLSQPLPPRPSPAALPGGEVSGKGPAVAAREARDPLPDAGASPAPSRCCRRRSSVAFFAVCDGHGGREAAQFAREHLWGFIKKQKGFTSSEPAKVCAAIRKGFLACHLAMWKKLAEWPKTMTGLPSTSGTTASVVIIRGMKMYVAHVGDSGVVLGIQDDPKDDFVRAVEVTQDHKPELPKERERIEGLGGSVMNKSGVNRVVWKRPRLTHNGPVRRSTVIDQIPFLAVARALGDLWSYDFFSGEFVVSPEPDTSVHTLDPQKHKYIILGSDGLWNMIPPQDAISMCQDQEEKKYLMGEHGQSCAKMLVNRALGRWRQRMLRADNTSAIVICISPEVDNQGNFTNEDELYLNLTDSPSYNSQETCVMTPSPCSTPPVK

CC[C@H](Nc1cc(Cl)cnc1C)c1ccc(C(=O)N[C@@H](CC2CCCC2)C(=O)NC2CC2)s1 [Compound 37, (2S)-2-({5-[(1S)-1-[(5-chloro-2-methylpyridin-3-yl)amino]propyl]thiophen-2-yl}formamido)-3-cyclopentyl-N-cyclopropylpropanamide]
IC50 [1]: 0.006 µM | IC50 [2]: 0.009 µM

COc1ncc(Cl)cc1N[C@@H](C)c1ccc(C(=O)N[C@@H](CC2CCCC2)C(=O)NC2CC2)s1 [Compound 38, (2S)-2-({5-[(1S)-1-[(5-chloro-2-methoxypyridin-3-yl)amino]ethyl]thiophen-2-yl}formamido)-3-cyclopentyl-N-cyclopropylpropanamide]
IC50 [1]: 0.007 µM | IC50 [2]: 0.009 µM

CC[C@@H](Nc1cc(Cl)cnc1C)c1ccc(C(=O)N[C@@H](CC2CCCC2)C(=O)NC2CC2)s1 [Compound 39, (2S)-2-({5-[(1R)-1-[(5-chloro-2-methylpyridin-3-yl)amino]propyl]thiophen-2-yl}formamido)-3-cyclopentyl-N-cyclopropylpropanamide]
IC50 [1]: 0.122 µM | IC50 [2]: 0.332 µM

COc1ncc(Cl)cc1N[C@@H](C)c1ccc(C(=O)N[C@@H](CC2CCCC2)C(=O)N[C@@H]2CC2(F)F)s1 [Compound 40, (2S)-2-({5-[(1S)-1-[(5-chloro-2-methoxypyridin-3-yl)amino]ethyl]thiophen-2-yl}formamido)-3-cyclopentyl-N-[(1R)-2,2-difluorocyclopropyl]propanamide]
IC50 [1]: 0.149 µM | IC50 [2]: 0.181 µM

Cc1ncc(Cl)cc1N[C@@H](C)c1ccc(C(=O)N[C@@H](CC2CCCC2)C(=O)Nc2cccc(S(C)(=O)=O)c2)s1 [Compound 41, (2S)-2-({5-[(1S)-1-[(5-chloro-2-methylpyridin-3-yl)amino]ethyl]thiophen-2-yl}formamido)-3-cyclopentyl-N-(3-methanesulfonylphenyl)propanamide]
IC50 [1]: 0.005 µM | IC50 [2]: 0.007 µM

Cc1ncc(Cl)cc1N[C@@H](C)c1ccc(C(=O)N[C@@H](CC2CCCC2)C(=O)NC2(C(F)(F)F)CC2)s1 [Compound 42, (2S)-2-({5-[(1S)-1-[(5-chloro-2-methylpyridin-3-yl)amino]ethyl]thiophen-2-yl}formamido)-3-cyclopentyl-N-[1-(trifluoromethyl)cyclopropyl]propanamide]
IC50 [1]: 0.012 µM | IC50 [2]: 0.015 µM

Cc1ncc(Cl)cc1N[C@@H](C)c1ccc(C(=O)N[C@@H](CC2CCCC2)C(=O)NC23CC(C(=O)O)(C2)C3)s1 [Compound 43, 3-[(2S)-2-({5-[(1S)-1-[(5-chloro-2-methylpyridin-3-yl)amino]ethyl]thiophen-2-yl}formamido)-3-cyclopentylpropanamido]bicyclo[1.1.1]pentane-1-carboxylic acid]
IC50 [1]: 0.013 µM | IC50 [2]: 0.016 µM

CNC(=O)C12CC(NC(=O)[C@H](CC3CCCC3)NC(=O)c3ccc([C@H](C)Nc4cc(Cl)cnc4C)s3)(C1)C2 [Compound 44, 3-[(2S)-2-({5-[(1S)-1-[(5-chloro-2-methylpyridin-3-yl)amino]ethyl]thiophen-2-yl}formamido)-3-cyclopentylpropanamido]-N-methylbicyclo[1.1.1]pentane-1-carboxamide]
IC50 [1]: 0.012 µM | IC50 [2]: 0.014 µM

Cc1ncc(Cl)cc1N[C@@H](C)c1ccc(C(=O)N[C@@H](CC2CCCC2)C(=O)NC23CC(C(N)=O)(C2)C3)s1 [Compound 45, 3-[(2S)-2-({5-[(1S)-1-[(5-chloro-2-methylpyridin-3-yl)amino]ethyl]thiophen-2-yl}formamido)-3-cyclopentylpropanamido]bicyclo[1.1.1]pentane-1-carboxamide]
IC50 [1]: 0.007 µM | IC50 [2]: 0.009 µM

CC(c1ccc(C(=O)N[C@@H](CC2CCCC2)C(=O)NC2CC2)s1)N1CCc2cc(F)c(Cl)cc21 (stereo partly drawn) [Compound 46, (2S)-2-({5-[1-(6-chloro-5-fluoro-2,3-dihydro-1H-indol-1-yl)ethyl]thiophen-2-yl}formamido)-3-cyclopentyl-N-cyclopropylpropanamide]
IC50 [1]: 0.016 µM | IC50 [2]: 0.023 µM

CC[C@H](Nc1cc(Cl)cnc1C)c1ccc(C(=O)N[C@@H](CC2CCCC2)C(=O)N[C@@H]2CC2(F)F)s1 [Compound 47, (2S)-2-({5-[(1S)-1-[(5-chloro-2-methylpyridin-3-yl)amino]propyl]thiophen-2-yl}formamido)-3-cyclopentyl-N-[(1R)-2,2-difluorocyclopropyl]propanamide]
IC50 [1]: 0.011 µM | IC50 [2]: 0.011 µM

CC[C@H](Nc1cc(Cl)cnc1C)c1ccc(C(=O)N[C@@H](CC2CCCC2)C(=O)N[C@H]2CC2(F)F)s1 [Compound 48, (2S)-2-({5-[(1S)-1-[(5-chloro-2-methylpyridin-3-yl)amino]propyl]thiophen-2-yl}formamido)-3-cyclopentyl-N-[(1S)-2,2-difluorocyclopropyl]propanamide]
IC50 [1]: 0.005 µM | IC50 [2]: 0.008 µM

COc1ncc(Cl)cc1N[C@@H](C)c1ccc(C(=O)N[C@@H](CC2CCCC2)C(=O)N[C@H]2CC2(F)F)s1 [Compound 49, (2S)-2-({5-[(1S)-1-[(5-chloro-2-methoxypyridin-3-yl)amino]ethyl]thiophen-2-yl}formamido)-3-cyclopentyl-N-[(1S)-2,2-difluorocyclopropyl]propanamide]
IC50 [1]: 0.104 µM | IC50 [2]: 0.164 µM

CC[C@@H](Nc1cc(Cl)cnc1C)c1ccc(C(=O)N[C@@H](CC2CCCC2)C(=O)N[C@@H]2CC2(F)F)s1 [Compound 50, (2S)-2-({5-[(1R)-1-[(5-chloro-2-methylpyridin-3-yl)amino]propyl]thiophen-2-yl}formamido)-3-cyclopentyl-N-[(1R)-2,2-difluorocyclopropyl]propanamide]
IC50 [1]: 0.122 µM | IC50 [2]: 0.17 µM

CC[C@@H](Nc1cc(Cl)cnc1C)c1ccc(C(=O)N[C@@H](CC2CCCC2)C(=O)N[C@H]2CC2(F)F)s1 [Compound 51, (2S)-2-({5-[(1R)-1-[(5-chloro-2-methylpyridin-3-yl)amino]propyl]thiophen-2-yl}formamido)-3-cyclopentyl-N-[(1S)-2,2-difluorocyclopropyl]propanamide]
IC50 [1]: 0.074 µM | IC50 [2]: 0.113 µM

Cc1ccc(NC(=O)[C@H](CC2CCCC2)NC(=O)c2ccc([C@H](C)Nc3cc(Cl)cnc3C)s2)cn1 [Compound 53, (2S)-2-({5-[(1S)-1-[(5-chloro-2-methylpyridin-3-yl)amino]ethyl]thiophen-2-yl}formamido)-3-cyclopentyl-N-(6-methylpyridin-3-yl)propanamide]
IC50 [1]: 0.005 µM | IC50 [2]: 0.008 µM

Cc1ncc(Cl)cc1NC(C)(C)c1ccc(C(=O)N[C@@H](CC2CCCC2)C(=O)NC23CC(C2)C3)s1 [Compound 54, (2S)-N-{bicyclo[1.1.1]pentan-1-yl}-2-[(5-{2-[(5-chloro-2-methylpyridin-3-yl)amino]propan-2-yl}thiophen-2-yl)formamido]-3-cyclopentylpropanamide]
IC50 [1]: 0.008 µM | IC50 [2]: 0.011 µM

Cc1ncc(Cl)cc1NC(C)(C)c1ccc(C(=O)N[C@@H](CC2CCCC2)C(=O)NC2CC2)s1 [Compound 55, (2S)-2-[(5-{2-[(5-chloro-2-methylpyridin-3-yl)amino]propan-2-yl}thiophen-2-yl)formamido]-3-cyclopentyl-N-cyclopropylpropanamide]
IC50 [1]: 0.029 µM | IC50 [2]: 0.036 µM

C[C@@H](c1ccc(C(=O)N[C@@H](CC2CCCC2)C(=O)NC2CC2)s1)N1CCc2cc(F)c(Cl)cc21 [Compound 56, (2S)-2-({5-[(1S)-1-(6-chloro-5-fluoro-2,3-dihydro-1H-indol-1-yl)ethyl]thiophen-2-yl}formamido)-3-cyclopentyl-N-cyclopropylpropanamide]
IC50 [1]: 0.039 µM | IC50 [2]: 0.05 µM

C[C@H](c1ccc(C(=O)N[C@@H](CC2CCCC2)C(=O)NC2CC2)s1)N1CCc2cc(F)c(Cl)cc21 [Compound 57, (2S)-2-({5-[(1R)-1-(6-chloro-5-fluoro-2,3-dihydro-1H-indol-1-yl)ethyl]thiophen-2-yl}formamido)-3-cyclopentyl-N-cyclopropylpropanamide]
IC50 [1]: 0.012 µM | IC50 [2]: 0.016 µM

Cc1ncc(Cl)cc1N[C@@H](C)c1ccc(C(=O)N[C@@H](CC2CCCC2)C(=O)NC2CCS(=O)(=O)CC2)s1 [Compound 58, (2S)-2-({5-[(1S)-1-[(5-chloro-2-methylpyridin-3-yl)amino]ethyl]thiophen-2-yl}formamido)-3-cyclopentyl-N-(1,1-dioxo-1λ^6-thian-4-yl)propanamide]
IC50 [1]: 0.009 µM | IC50 [2]: 0.012 µM

COCCOc1ccc(NC(=O)[C@H](CC2CCCC2)NC(=O)c2ccc([C@H](C)Nc3cc(Cl)cnc3C)s2)cc1 [Compound 59, (2S)-2-({5-[(1S)-1-[(5-chloro-2-methylpyridin-3-yl)amino]ethyl]thiophen-2-yl}formamido)-3-cyclopentyl-N-[4-(2-methoxyethoxy)phenyl]propanamide]
IC50 [1]: 0.005 µM | IC50 [2]: 0.007 µM

COc1ncc(Cl)cc1N[C@@H](C)c1ccc(C(=O)N[C@@H](CC2CCCC2)C(=O)NC23CC(C2)C3)s1 [Compound 60, (2S)-N-{bicyclo[1.1.1]pentan-1-yl}-2-({5-[(1S)-1-[(5-chloro-2-methoxypyridin-3-yl)amino]ethyl]thiophen-2-yl}formamido)-3-cyclopentylpropanamide]
IC50 [1]: 0.006 µM | IC50 [2]: 0.007 µM

Cc1cc(NC(=O)[C@H](CC2CCCC2)NC(=O)c2ccc([C@H](C)Nc3cc(Cl)cnc3C)s2)cc(C)n1 [Compound 62, (2S)-2-({5-[(1S)-1-[(5-chloro-2-methylpyridin-3-yl)amino]ethyl]thiophen-2-yl}formamido)-3-cyclopentyl-N-(2,6-dimethylpyridin-4-yl)propanamide]
IC50 [1]: 0.006 µM | IC50 [2]: 0.01 µM

Cc1ncc(Cl)cc1N[C@@H](C)c1ccc(C(=O)N[C@@H](CC2CCCC2)C(=O)NC2CC3CCC(C2)O3)s1 (stereo partly drawn) [Compound 63, (2S)-2-({5-[(1S)-1-[(5-chloro-2-methylpyridin-3-yl)amino]ethyl]thiophen-2-yl}formamido)-3-cyclopentyl-N-{8-oxabicyclo[3.2.1]octan-3-yl}propanamide]
IC50 [1]: 0.015 µM | IC50 [2]: 0.022 µM
